According to paper PMC5218480 (PLoS ONE, 2017):

System: MV-4-11 cells
Assay: Gene expression microarray analysis (Affymetrix PrimeView) and GSEA
Assay type: cell-based, human
Parameters: RFU PODN (11730768_x_at) / Fold change /veh PODN (11730768_x_at) / RFU LINC00158 (11744669_a_at) / Fold change /veh LINC00158 (11744669_a_at) / RFU DUSP10 (11751237_a_at) / Fold change /veh DUSP10 (11751237_a_at) / RFU ID3 (11757404_x_at) / Fold change /veh ID3 (11757404_x_at) / RFU PLEKHG5 (11737974_s_at) / Fold change /veh PLEKHG5 (11737974_s_at) / RFU LRRC4B (11730491_at) / Fold change /veh LRRC4B (11730491_at) / RFU GIMAP4 (11747438_a_at) / Fold change /veh GIMAP4 (11747438_a_at) / RFU KRT8 (11758183_x_at) / Fold change /veh KRT8 (11758183_x_at) / RFU CNN1 (11734310_a_at) / Fold change /veh CNN1 (11734310_a_at) / RFU VPS37D (11726825_at) / Fold change /veh VPS37D (11726825_at) / RFU C10orf10 (11716522_x_at) / Fold change /veh C10orf10 (11716522_x_at) / RFU KIR2DL2 /// KIR2DL4 /// KIR2DL5A /// KIR2DL5B /// KIR2DS1 /// KIR2DS2 /// KIR2DS3 /// KIR2DS4 /// KIR3DL3 /// KIR3DL3 /// KIR3DS1 (11738374_at) / Fold change /veh KIR2DL2 /// KIR2DL4 /// KIR2DL5A /// KIR2DL5B /// KIR2DS1 /// KIR2DS2 /// KIR2DS3 /// KIR2DS4 /// KIR3DL3 /// KIR3DL3 /// KIR3DS1 (11738374_at) / RFU C1QL1 (11718748_at) / Fold change /veh C1QL1 (11718748_at) / RFU TMPRSS4 (11747572_a_at) / Fold change /veh TMPRSS4 (11747572_a_at) / RFU HAMP (11756126_x_at) / Fold change /veh HAMP (11756126_x_at) / RFU RNFT2 (11725882_a_at) / Fold change /veh RNFT2 (11725882_a_at) / RFU NR4A2 (11747474_a_at) / Fold change /veh NR4A2 (11747474_a_at) / RFU ABCC12 (11746883_a_at) / Fold change /veh ABCC12 (11746883_a_at) / RFU TMEM136 (11760407_x_at) / Fold change /veh TMEM136 (11760407_x_at) / RFU CLDN22 /// WWC2 (11732394_at) / Fold change /veh CLDN22 /// WWC2 (11732394_at) / RFU HLA-DPB1 (11760878_x_at) / Fold change /veh HLA-DPB1 (11760878_x_at) / RFU SPINT1 (11716480_a_at) / Fold change /veh SPINT1 (11716480_a_at) / RFU GAP43 (11754022_s_at) / Fold change /veh GAP43 (11754022_s_at) / RFU A4GNT (11735810_at) / Fold change /veh A4GNT (11735810_at) / RFU PRB3 (11715151_x_at) / Fold change /veh PRB3 (11715151_x_at) / RFU TUBB4B (11761932_at) / Fold change /veh TUBB4B (11761932_at) / RFU CAPN14 (11732068_a_at) / Fold change /veh CAPN14 (11732068_a_at) / RFU TMCC2 (11721928_a_at) / Fold change /veh TMCC2 (11721928_a_at) / RFU IRGQ (11745062_a_at) / Fold change /veh IRGQ (11745062_a_at) / RFU FAM174B (11720279_a_at) / Fold change /veh FAM174B (11720279_a_at) / RFU TMPRSS4 (11748680_a_at) / Fold change /veh TMPRSS4 (11748680_a_at) / RFU FAM212B (11763350_a_at) / Fold change /veh FAM212B (11763350_a_at) / RFU PLEKHG5 (11743358_a_at) / Fold change /veh PLEKHG5 (11743358_a_at) / RFU ZSCAN30 (11745921_a_at) / Fold change /veh ZSCAN30 (11745921_a_at) / RFU CMKLR1 (11741424_a_at) / Fold change /veh CMKLR1 (11741424_a_at) / RFU LOC101060620 /// MAPK8IP1 (11723275_at) / Fold change /veh LOC101060620 /// MAPK8IP1 (11723275_at) / RFU SPTSSB (11747773_x_at) / Fold change /veh SPTSSB (11747773_x_at) / RFU PRSS12 (11739890_at) / Fold change /veh PRSS12 (11739890_at) / RFU BIN1 (11741810_x_at) / Fold change /veh BIN1 (11741810_x_at) / RFU WNT11 (11732464_a_at) / Fold change /veh WNT11 (11732464_a_at) / RFU C10orf10 (11716521_a_at) / Fold change /veh C10orf10 (11716521_a_at) / RFU C5orf56 (11738089_at) / Fold change /veh C5orf56 (11738089_at) / RFU CYB561 (11721691_x_at) / Fold change /veh CYB561 (11721691_x_at) / RFU ANKRD19P (11752326_a_at) / Fold change /veh ANKRD19P (11752326_a_at) / RFU OR2T12 /// OR2T33 /// OR2T8 (11738714_s_at) / Fold change /veh OR2T12 /// OR2T33 /// OR2T8 (11738714_s_at) / RFU VCAN (11748164_a_at) / Fold change /veh VCAN (11748164_a_at) / RFU JSRP1 (11732532_at) / Fold change /veh JSRP1 (11732532_at) / RFU KRTAP10-11 (11738290_x_at) / Fold change /veh KRTAP10-11 (11738290_x_at) / RFU MYO3A (11730013_a_at) / Fold change /veh MYO3A (11730013_a_at) / RFU EBF3 (11725865_a_at) / Fold change /veh EBF3 (11725865_a_at) / RFU CAMK2N1 (11719241_x_at) / Fold change /veh CAMK2N1 (11719241_x_at) / RFU C5orf56 (11738088_a_at) / Fold change /veh C5orf56 (11738088_a_at) / RFU OLFML3 (11715873_a_at) / Fold change /veh OLFML3 (11715873_a_at) / RFU LOC100653217 /// NTM (11731650_a_at) / Fold change /veh LOC100653217 /// NTM (11731650_a_at) / RFU MAPK11 (11762145_a_at) / Fold change /veh MAPK11 (11762145_a_at) / RFU FIZ1 (11724087_x_at) / Fold change /veh FIZ1 (11724087_x_at) / RFU OASL (11726364_x_at) / Fold change /veh OASL (11726364_x_at) / RFU SOX15 (11748057_x_at) / Fold change /veh SOX15 (11748057_x_at) / RFU CD79A (11719716_a_at) / Fold change /veh CD79A (11719716_a_at) / RFU HIST1H1D (11736915_at) / Fold change /veh HIST1H1D (11736915_at) / RFU CASKIN2 (11723855_a_at) / Fold change /veh CASKIN2 (11723855_a_at) / RFU LOC730098 (11760151_x_at) / Fold change /veh LOC730098 (11760151_x_at) / RFU OR4N2 (11742367_at) / Fold change /veh OR4N2 (11742367_at) / RFU PRRT2 (11749266_a_at) / Fold change /veh PRRT2 (11749266_a_at) / RFU SNX32 (11753110_a_at) / Fold change /veh SNX32 (11753110_a_at) / RFU CDHR5 (11726645_a_at) / Fold change /veh CDHR5 (11726645_a_at) / RFU RCAN1 (11760418_a_at) / Fold change /veh RCAN1 (11760418_a_at) / RFU FAM167A (11723789_a_at) / Fold change /veh FAM167A (11723789_a_at) / RFU FAM26E (11764081_at) / Fold change /veh FAM26E (11764081_at) / RFU ISYNA1 (11749810_s_at) / Fold change /veh ISYNA1 (11749810_s_at) / RFU ACY1 (11761880_at) / Fold change /veh ACY1 (11761880_at) / RFU 11764098_at / Fold change /veh 11764098_at / RFU SAMD14 (11745864_x_at) / Fold change /veh SAMD14 (11745864_x_at) / RFU NPB (11741838_a_at) / Fold change /veh NPB (11741838_a_at) / RFU TMPRSS6 (11731388_a_at) / Fold change /veh TMPRSS6 (11731388_a_at) / RFU KRTAP10-2 (11738614_at) / Fold change /veh KRTAP10-2 (11738614_at) / RFU ARHGAP8 /// PRR5-ARHGAP8 (11727945_x_at) / Fold change /veh ARHGAP8 /// PRR5-ARHGAP8 (11727945_x_at) / RFU KRTAP5-7 /// NADSYN1 (11734609_at) / Fold change /veh KRTAP5-7 /// NADSYN1 (11734609_at) / RFU RASL12 (11751679_a_at) / Fold change /veh RASL12 (11751679_a_at) / RFU CDKN2B (11736163_a_at) / Fold change /veh CDKN2B (11736163_a_at) / RFU PRF1 (11729649_at) / Fold change /veh PRF1 (11729649_at) / RFU, ZNF638 /// ZNF638-IT1 / Fold change vs veh, ZNF638 /// ZNF638-IT1 / RFU, PANK3 / Fold change vs veh, PANK3 / RFU, SH3YL1 / Fold change vs veh, SH3YL1 / RFU, ZEB2 / Fold change vs veh, ZEB2 / RFU, NRIP1 / Fold change vs veh, NRIP1 / RFU, PTTG1IP / Fold change vs veh, PTTG1IP / RFU, CAPN2 / Fold change vs veh, CAPN2 / RFU, MED14 / Fold change vs veh, MED14 / RFU, SNORA58 / Fold change vs veh, SNORA58 / RFU, C1orf63 / Fold change vs veh, C1orf63 / RFU, LRRFIP1 / Fold change vs veh, LRRFIP1 / RFU, NDUFAF7 / Fold change vs veh, NDUFAF7 / RFU, SLC12A2 / Fold change vs veh, SLC12A2 / RFU, IBTK / Fold change vs veh, IBTK / RFU, ESF1 / Fold change vs veh, ESF1 / Fold change vs veh, TMEM50B / RFU, TAOK1 / Fold change vs veh, TAOK1 / RFU, ACBD3 / Fold change vs veh, ACBD3 / RFU, TMA16 / Fold change vs veh, TMA16 / RFU, RWDD3 / Fold change vs veh, RWDD3 / RFU, BCAT1 / Fold change vs veh, BCAT1 / RFU, EDEM3 / Fold change vs veh, EDEM3 / RFU, TMEM33 / Fold change vs veh, TMEM33 / RFU, WDR75 / Fold change vs veh, WDR75 / RFU, AHCTF1 / Fold change vs veh, AHCTF1 / RFU, TFRC / Fold change vs veh, TFRC / RFU, ZDHHC17 / Fold change vs veh, ZDHHC17 / RFU, NOM1 / Fold change vs veh, NOM1 / RFU, ARL8B / Fold change vs veh, ARL8B / RFU, ZBTB11 / Fold change vs veh, ZBTB11 / RFU, TAMM41 / Fold change vs veh, TAMM41 / RFU, KIAA1704 /// LOC100996395 / Fold change vs veh, KIAA1704 /// LOC100996395 / RFU, ING1 / Fold change vs veh, ING1 / RFU, TRMT61B / Fold change vs veh, TRMT61B / RFU, FUBP3 / Fold change vs veh, FUBP3 / RFU, TP53 / Fold change vs veh, TP53 / RFU, TNKS2 / Fold change vs veh, TNKS2 / RFU, ZFP14 / Fold change vs veh, ZFP14 / RFU, ACTR2 / Fold change vs veh, ACTR2 / RFU, PPP3R1 / Fold change vs veh, PPP3R1 / RFU, PIK3R1 / Fold change vs veh, PIK3R1 / RFU, HNRNPA1 / Fold change vs veh, HNRNPA1 / RFU, RNF170 / Fold change vs veh, RNF170 / RFU, ZNF28 / Fold change vs veh, ZNF28 / RFU, RNGTT / Fold change vs veh, RNGTT / RFU, OGT / Fold change vs veh, OGT / RFU, BRD1 / Fold change vs veh, BRD1 / RFU, MARS / Fold change vs veh, MARS / RFU, ZNF655 / Fold change vs veh, ZNF655 / RFU, FAHD1 / Fold change vs veh, FAHD1 / RFU, BDP1 / Fold change vs veh, BDP1 / RFU, LRRCC1 / Fold change vs veh, LRRCC1 / RFU, ARID1A / Fold change vs veh, ARID1A / RFU, ZNF146 / Fold change vs veh, ZNF146 / RFU, ZNF330 / Fold change vs veh, ZNF330 / RFU, GPN3 / Fold change vs veh, GPN3 / RFU, C9orf123 / Fold change vs veh, C9orf123 / RFU, N4BP2L2 / Fold change vs veh, N4BP2L2 / RFU, ARFIP1 / Fold change vs veh, ARFIP1 / RFU, FAM179B / Fold change vs veh, FAM179B / RFU, BCL10 / Fold change vs veh, BCL10 / RFU, UHRF1BP1L / Fold change vs veh, UHRF1BP1L / RFU, BET1 / Fold change vs veh, BET1 / RFU, CNOT2 / Fold change vs veh, CNOT2 / RFU, ZNF268 / Fold change vs veh, ZNF268 / Fold change vs veh, ZNF507 / RFU, DGCR2 / Fold change vs veh, DGCR2 / RFU, WDSUB1 / Fold change vs veh, WDSUB1 / Fold change vs veh, HSP90B1 /// MIR3652 / RFU, ADSS / Fold change vs veh, ADSS / RFU, GK / Fold change vs veh, GK / RFU, ZNF148 / Fold change vs veh, ZNF148 / RFU, TAF9 / Fold change vs veh, TAF9 / RFU, SLC1A5 / Fold change vs veh, SLC1A5 / RFU, SLMO2 / Fold change vs veh, SLMO2 / RFU, ABCC4 / Fold change vs veh, ABCC4 / RFU, LOC101060439 /// RAP1B / Fold change vs veh, LOC101060439 /// RAP1B / RFU, RFX7 / Fold change vs veh, RFX7 / RFU, GTPBP10 / Fold change vs veh, GTPBP10 / RFU, CNEP1R1 / Fold change vs veh, CNEP1R1 / RFU, BIVM-ERCC5 /// ERCC5 / Fold change vs veh, BIVM-ERCC5 /// ERCC5 / RFU, ILF3 / Fold change vs veh, ILF3 / RFU 11762660_at / Fold change /veh 11762660_at / RFU VCAN (11757783_s_at) / Fold change /veh VCAN (11757783_s_at) / RFU DDX43 (11728927_at) / Fold change /veh DDX43 (11728927_at) / RFU KRT8 (11758188_x_at) / Fold change /veh KRT8 (11758188_x_at) / RFU NKD1 (11759106_at) / Fold change /veh NKD1 (11759106_at) / RFU SRD5A1 (11742802_a_at) / Fold change /veh SRD5A1 (11742802_a_at) / RFU TPSAB1 /// TPSB2 (11721975_s_at) / Fold change /veh TPSAB1 /// TPSB2 (11721975_s_at) / RFU GSTM3 (11746129_a_at) / Fold change /veh GSTM3 (11746129_a_at) / RFU IL23R (11737362_x_at) / Fold change /veh IL23R (11737362_x_at) / RFU TMEM51 (11727254_a_at) / Fold change /veh TMEM51 (11727254_a_at) / RFU PIWIL2 (11732686_x_at) / Fold change /veh PIWIL2 (11732686_x_at) / RFU ORM1 (11744905_x_at) / Fold change /veh ORM1 (11744905_x_at) / RFU CCDC152 (11743942_at) / Fold change /veh CCDC152 (11743942_at) / RFU ECM1 (11717891_a_at) / Fold change /veh ECM1 (11717891_a_at) / RFU IL23R (11748794_a_at) / Fold change /veh IL23R (11748794_a_at) / RFU TNFAIP8L3 (11732012_x_at) / Fold change /veh TNFAIP8L3 (11732012_x_at) / RFU MBOAT4 (11741988_at) / Fold change /veh MBOAT4 (11741988_at) / RFU 11764193_at / Fold change /veh 11764193_at / RFU TMEM53 (11763286_at) / Fold change /veh TMEM53 (11763286_at) / RFU MAGEB2 (11727129_at) / Fold change /veh MAGEB2 (11727129_at) / RFU TMEM200A (11744735_a_at) / Fold change /veh TMEM200A (11744735_a_at) / RFU CCDC152 (11751479_a_at) / Fold change /veh CCDC152 (11751479_a_at) / RFU FAM211A (11726209_a_at) / Fold change /veh FAM211A (11726209_a_at) / RFU RGS16 (11746705_a_at) / Fold change /veh RGS16 (11746705_a_at) / RFU VCAN (11755009_s_at) / Fold change /veh VCAN (11755009_s_at) / RFU RHOB (11743442_s_at) / Fold change /veh RHOB (11743442_s_at) / RFU RGS16 (11720943_a_at) / Fold change /veh RGS16 (11720943_a_at) / RFU RGS16 (11720944_at) / Fold change /veh RGS16 (11720944_at) / RFU, VPS4B / Fold change vs veh, VPS4B / RFU, CREB1 / Fold change vs veh, CREB1 / RFU, DNAJC13 / Fold change vs veh, DNAJC13 / RFU, GNAQ / Fold change vs veh, GNAQ / RFU, CDK5R1 / Fold change vs veh, CDK5R1 / RFU, ZRANB3 / Fold change vs veh, ZRANB3 / RFU, CUL4A / Fold change vs veh, CUL4A / RFU, CCNY / Fold change vs veh, CCNY / RFU, UFL1 / Fold change vs veh, UFL1 / RFU, COG3 / Fold change vs veh, COG3 / RFU, DIAPH2 / Fold change vs veh, DIAPH2 / RFU, SKA2 / Fold change vs veh, SKA2 / RFU, AFF3 / Fold change vs veh, AFF3 / RFU, LMF1 / Fold change vs veh, LMF1 / RFU, IPO11 / Fold change vs veh, IPO11 / RFU, DFFB / Fold change vs veh, DFFB / RFU, FOXP1 / Fold change vs veh, FOXP1 / RFU, CARD8 / Fold change vs veh, CARD8 / RFU, STRN3 / Fold change vs veh, STRN3 / RFU, ADK / Fold change vs veh, ADK / RFU, RASSF2 / Fold change vs veh, RASSF2 / RFU, WIPF1 / Fold change vs veh, WIPF1 / RFU, LARP1B / Fold change vs veh, LARP1B / RFU, RASA1 / Fold change vs veh, RASA1 / RFU, RB1 / Fold change vs veh, RB1 / RFU, PPFIA1 / Fold change vs veh, PPFIA1 / RFU, MAT2A / Fold change vs veh, MAT2A / RFU, CCT5 / Fold change vs veh, CCT5 / RFU, WDR92 / Fold change vs veh, WDR92 / RFU, CUX1 / Fold change vs veh, CUX1 / RFU, TTC7A / Fold change vs veh, TTC7A / RFU, TMEM135 / Fold change vs veh, TMEM135 / RFU, DEPTOR / Fold change vs veh, DEPTOR / RFU, CPM / Fold change vs veh, CPM / RFU, DNAJB6 / Fold change vs veh, DNAJB6 / RFU, CACNA2D3 / Fold change vs veh, CACNA2D3 / RFU, DTX4 / Fold change vs veh, DTX4 / RFU, TFCP2 / Fold change vs veh, TFCP2 / RFU, GMCL1 /// GMCL1P1 / Fold change vs veh, GMCL1 /// GMCL1P1 / RFU, AEBP2 / Fold change vs veh, AEBP2 / RFU, SNHG1 /// SNORD22 /// SNORD25 /// SNORD26 /// SNORD27 /// SNORD28 /// SNORD29 /// SNORD31 / Fold change vs veh, SNHG1 /// SNORD22 /// SNORD25 /// SNORD26 /// SNORD27 /// SNORD28 /// SNORD29 /// SNORD31 / Fold change (Aza/veh), C12orf56 (ProbeSet 11735607_a_at) / Fold change (ACY-1035/veh), C12orf56 (ProbeSet 11735607_a_at) / Fold change (Aza/veh), FGFR1OP (ProbeSet 11751329_s_at) / Fold change (ACY-1035/veh), FGFR1OP (ProbeSet 11751329_s_at) / Fold change (Aza/veh), VPS36 (ProbeSet 11739960_a_at) / Fold change (ACY-1035/veh), VPS36 (ProbeSet 11739960_a_at) / RFU SYPL1 (11715823_x_at) / Fold change /veh SYPL1 (11715823_x_at) / RFU IGFBP7 (11715501_s_at) / Fold change /veh IGFBP7 (11715501_s_at) / RFU REEP3 (11722064_at) / Fold change /veh REEP3 (11722064_at) / RFU IGLL1 (11728026_x_at) / Fold change /veh IGLL1 (11728026_x_at): dose or concentration left out as unconfirmed
Details: ProbeSet 11721969_s_at; LIST B

SMILES: Nc1ncn([C@@H]2O[C@H](CO)[C@@H](O)[C@H]2O)c(=O)n1 [azacitidine]
- Fold change vs veh, BDP1: 0.86
